# Test results: ChEMBL document CHEMBL1201862, “PubChem BioAssay data set” (2004)
#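 48-hour exposure; five concentrations; linearly interpolated endpoints. Abbreviation: GI50, concentration required for 50% inhibition of growth.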 The source made the active and inactive calls. Cut-off read from the data, not from the text of the source: active = GI50 up to about 1.1 µM and inactive = higher.
# Tests used:
# Test in all cases: inhibition of tumour cell growth, NCI panel, 48 h
# [1] = system: COLO 205
# [2] = system: EKVX
# [3] = system: HCT-15
# [4] = system: HOP-62
# [5] = system: HOP-92
# [6] = system: MCF7
# [7] = system: MDA-MB-231
# [8] = system: NCI-H460
# [9] = system: NCI-H522
# [10] = system: OVCAR-3
# [11] = system: OVCAR-5
# [12] = system: OVCAR-8
# [13] = system: SF-268
# [14] = system: SF-295
# [15] = system: SK-MEL-5
# [16] = system: SN12C
# [17] = system: SW-620
# [18] = system: UACC-257
# [19] = system: UO-31
# [20] = system: DMS-114
Structure (SMILES),GI50 [1],GI50 [2],GI50 [3],GI50 [4],GI50 [5],GI50 [6],GI50 [7],GI50 [8],GI50 [9],GI50 [10],GI50 [11],GI50 [12],GI50 [13],GI50 [14],GI50 [15],GI50 [16],GI50 [17],GI50 [18],GI50 [19],GI50 [20]
Cc1cn([C@@H]2O[C@H](CO)[C@@H](O)[C@@H]2O)c(=O)[nH]c1=O,> 1000 µM (inactive),> 1000 µM (inactive),> 1000 µM,> 1000 µM (inactive),> 1000 µM (inactive),> 1000 µM (inactive),> 1000 µM (inactive),> 1000 µM (inactive),> 1000 µM (inactive),> 1000 µM (inactive),> 1000 µM (inactive),> 1000 µM (inactive),> 1000 µM (inactive),> 1000 µM (inactive),> 1000 µM (inactive),> 1000 µM (inactive),> 1000 µM (inactive),> 1000 µM (inactive),> 1000 µM (inactive),
CC1=C(O)C(=O)C[C@]2(C)[C@H]3CC=C4[C@@H]5CC(C)(C)CC[C@@H]5C(=O)[C@H](O)[C@@]4(C)[C@]3(C)CC[C@@H]12,> 50 µM (inactive),> 50 µM (inactive),> 50 µM,30.7 µM (inactive),7.36 µM (inactive),> 50 µM (inactive),> 50 µM (inactive),> 50 µM (inactive),16.6 µM (inactive),> 50 µM (inactive),> 50 µM (inactive),22.6 µM (inactive),> 50 µM (inactive),37.8 µM (inactive),34.8 µM (inactive),> 50 µM (inactive),> 50 µM (inactive),> 50 µM (inactive),> 50 µM (inactive),
Cc1cc([N+](=O)[O-])c(C)c2c1[nH]c1ccc(O)cc12,64.6 µM (inactive),> 100 µM (inactive),50 µM,> 100 µM (inactive),,,,> 100 µM (inactive),> 10 µM (inactive),60.4 µM (inactive),> 100 µM (inactive),> 100 µM (inactive),> 100 µM (inactive),> 100 µM (inactive),> 100 µM (inactive),> 100 µM (inactive),63.1 µM (inactive),> 100 µM (inactive),> 100 µM (inactive),66.4 µM (inactive)
Cc1cc(Cc2c(F)c(F)c(C(c3cc(C)no3)c3c(F)c(F)c(F)c(F)c3F)c(F)c2F)on1 (configuration not stated),> 100 µM (inactive),> 100 µM (inactive),14.2 µM,> 100 µM (inactive),> 100 µM (inactive),6.76 µM (inactive),> 100 µM (inactive),6.41 µM (inactive),23.9 µM (inactive),> 27.4 µM (inactive),> 100 µM (inactive),> 100 µM (inactive),78.3 µM (inactive),5.41 µM (inactive),7.16 µM (inactive),> 50.7 µM (inactive),8.02 µM (inactive),5.32 µM (inactive),> 100 µM (inactive),
CCOC(=O)NC/C=C/COC1CCCCO1 (configuration not stated),> 100 µM (inactive),,> 100 µM,> 100 µM (inactive),,,,> 100 µM (inactive),> 100 µM (inactive),,,> 100 µM (inactive),> 100 µM (inactive),,> 100 µM (inactive),> 100 µM (inactive),> 100 µM (inactive),> 100 µM (inactive),> 100 µM (inactive),> 100 µM (inactive)
CC(C)NC(=O)OCc1c(COC(=O)NC(C)C)c(-c2ccc[n+](COC(=O)C3CCCCC3)c2)n2c1CCC2,93.1 µM (inactive),> 100 µM (inactive),85.5 µM,37.7 µM (inactive),39.4 µM (inactive),36.6 µM (inactive),40.5 µM (inactive),27.9 µM (inactive),25.1 µM (inactive),> 100 µM (inactive),78.3 µM (inactive),51.2 µM (inactive),42.6 µM (inactive),47.8 µM (inactive),70.8 µM (inactive),47.6 µM (inactive),57.4 µM (inactive),> 100 µM (inactive),40.6 µM (inactive),
Nc1ccc2nc(Nc3ccc(F)cc3)cnc2c1,> 100 µM (inactive),> 100 µM (inactive),> 100 µM,> 100 µM (inactive),,,,> 100 µM (inactive),44.4 µM (inactive),90.4 µM (inactive),> 100 µM (inactive),> 100 µM (inactive),74.5 µM (inactive),> 100 µM (inactive),> 100 µM (inactive),> 100 µM (inactive),> 100 µM (inactive),> 100 µM (inactive),47.2 µM (inactive),34.4 µM (inactive)
CN(CC(=O)O)c1ncc2c(n1)CCCC2,> 100 µM (inactive),> 100 µM (inactive),> 100 µM,> 100 µM (inactive),> 100 µM (inactive),> 100 µM (inactive),> 100 µM (inactive),> 100 µM (inactive),> 100 µM (inactive),> 100 µM (inactive),> 100 µM (inactive),> 100 µM (inactive),> 100 µM (inactive),> 100 µM (inactive),> 100 µM (inactive),> 100 µM (inactive),> 100 µM (inactive),> 100 µM (inactive),> 100 µM (inactive),
COc1ccc(C(=C(C#N)C#N)c2ccc(OC)cc2)cc1,> 100 µM (inactive),> 100 µM (inactive),> 100 µM,> 100 µM (inactive),,,,> 100 µM (inactive),30 µM (inactive),> 100 µM (inactive),> 100 µM (inactive),> 100 µM (inactive),> 100 µM (inactive),> 100 µM (inactive),,> 100 µM (inactive),> 100 µM (inactive),> 100 µM (inactive),> 100 µM (inactive),77.1 µM (inactive)
CC(=N\N=C\c1ccccn1)/C(C)=N/N=C/c1ccccn1,> 100 µM (inactive),> 100 µM (inactive),60.8 µM,> 100 µM (inactive),> 100 µM (inactive),89.7 µM (inactive),> 100 µM (inactive),> 100 µM (inactive),> 100 µM (inactive),> 100 µM (inactive),> 100 µM (inactive),> 100 µM (inactive),> 100 µM (inactive),> 100 µM (inactive),98.4 µM (inactive),> 100 µM (inactive),> 100 µM (inactive),> 100 µM (inactive),> 100 µM (inactive),
CN(C)CCNC(=O)c1cc2ccccc2c2nc3ccccc3nc12,0.828 µM (active),2.06 µM (inactive),0.522 µM,2.39 µM (inactive),,,,,1.89 µM (inactive),2.1 µM (inactive),1.94 µM (inactive),0.771 µM (active),0.0617 µM (active),0.575 µM (active),1.79 µM (inactive),0.736 µM (active),0.484 µM (active),1.45 µM (inactive),1.8 µM (inactive),0.83 µM (active)
O=[N+]([O-])c1cc2oc(CSc3ccccc3)nc2cc1Cl,21.7 µM (inactive),30.7 µM (inactive),19.2 µM,41.7 µM (inactive),26.6 µM (inactive),42.8 µM (inactive),32.2 µM (inactive),26.7 µM (inactive),29.3 µM (inactive),30 µM (inactive),31.3 µM (inactive),33.5 µM (inactive),58.7 µM (inactive),28.2 µM (inactive),16.6 µM (inactive),29.9 µM (inactive),43.9 µM (inactive),28.6 µM (inactive),35.9 µM (inactive),
